What was measured:
D(2) dopamine receptor = D(2) dopamine receptor (Rattus norvegicus, UniProt P61169); experiment: Displacement of [3H]Spiperone from rat dopamine D2L receptor expressed in HEK293 cells
D(3) dopamine receptor = D(3) dopamine receptor (Rattus norvegicus, UniProt P19020); experiment: Displacement of [3H]Spiperone from rat dopamine D3 receptor expressed in HEK293 cells
D(3) dopamine receptor, sequence (P19020 whole entry): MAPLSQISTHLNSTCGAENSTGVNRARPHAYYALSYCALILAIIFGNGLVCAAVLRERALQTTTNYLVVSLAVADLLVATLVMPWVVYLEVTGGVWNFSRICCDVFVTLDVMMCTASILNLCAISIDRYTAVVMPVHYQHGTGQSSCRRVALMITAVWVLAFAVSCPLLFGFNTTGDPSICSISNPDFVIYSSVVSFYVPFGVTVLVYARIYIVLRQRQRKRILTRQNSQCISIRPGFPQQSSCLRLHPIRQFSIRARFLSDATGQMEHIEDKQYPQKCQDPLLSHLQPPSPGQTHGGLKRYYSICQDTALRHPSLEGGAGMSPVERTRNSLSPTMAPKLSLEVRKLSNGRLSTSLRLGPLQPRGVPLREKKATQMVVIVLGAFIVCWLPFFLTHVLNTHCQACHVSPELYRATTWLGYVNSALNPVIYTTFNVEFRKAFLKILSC

D(2) dopamine receptor, sequence (P61169 whole entry): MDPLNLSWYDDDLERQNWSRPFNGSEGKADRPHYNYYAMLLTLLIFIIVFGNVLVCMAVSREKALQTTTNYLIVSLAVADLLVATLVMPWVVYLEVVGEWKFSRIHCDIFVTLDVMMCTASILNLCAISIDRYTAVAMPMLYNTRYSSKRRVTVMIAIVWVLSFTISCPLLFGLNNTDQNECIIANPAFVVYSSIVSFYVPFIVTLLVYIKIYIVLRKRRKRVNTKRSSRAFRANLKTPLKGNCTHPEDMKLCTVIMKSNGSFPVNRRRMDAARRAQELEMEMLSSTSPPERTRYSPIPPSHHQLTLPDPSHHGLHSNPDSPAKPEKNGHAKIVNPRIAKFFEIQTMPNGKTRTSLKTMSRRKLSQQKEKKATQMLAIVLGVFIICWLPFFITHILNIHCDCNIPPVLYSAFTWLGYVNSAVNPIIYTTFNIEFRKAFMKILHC

Ki (D(2) dopamine receptor): 3.33 µM | Ki (D(3) dopamine receptor): 419 nM
SMILES: Oc1ccc2c(c1)C[C@@H]1[C@@H](CCCN1CCN1CCN(c3ccccc3)CC1)C2 (racemic) [(+/-)-cis-1-[2-(4-Phenylpiperazin-1-yl)ethyl]-1,2,3,4,4a,5,10,10a-octahydrobenzo[g]quinolin-8-ol]
